# Measurements: patent US20240217957A1, “HETEROCYCLIC COMPOUND AND USE THEREOF” (TAKEDA PHARMACEUTICAL COMPANY LIMITED, priority 2022, published 2024)
# Target: T1, human OX2 receptor (Homo sapiens, UniProt O43614)
# T1 construct: expressed in transfected cells
# T1 sequence (O43614 1-444): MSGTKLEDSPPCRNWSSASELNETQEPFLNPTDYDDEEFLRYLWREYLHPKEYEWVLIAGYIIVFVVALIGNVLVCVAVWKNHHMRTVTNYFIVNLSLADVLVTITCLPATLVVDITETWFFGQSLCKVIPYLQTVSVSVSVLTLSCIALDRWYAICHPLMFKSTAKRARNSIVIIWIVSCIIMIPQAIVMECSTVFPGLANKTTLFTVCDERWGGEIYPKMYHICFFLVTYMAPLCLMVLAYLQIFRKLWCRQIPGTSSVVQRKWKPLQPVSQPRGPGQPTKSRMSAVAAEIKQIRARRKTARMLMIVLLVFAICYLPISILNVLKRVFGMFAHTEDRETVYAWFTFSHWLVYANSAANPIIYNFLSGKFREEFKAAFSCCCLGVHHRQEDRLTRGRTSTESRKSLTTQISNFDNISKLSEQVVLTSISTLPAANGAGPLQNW
# Test: Measurement of orexin type 2 receptor agonist activity (calcium fluorescence, Fluo-4 AM, FDSS)
# Type: cell-based
# Settings: compound at 3 μM; CHO cells forcibly expressing human OX2 receptor; DMSO = 0%, 10 nM orexin A (human) = 100%
# Summary of the method: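 Agonist response is expressed as % of the fluorescence change given by 10 nM human orexin A, with DMSO as 0%, read over 1 min 40 s on FDSS after compound addition. Cells: stable human OX2 (1-444) CHO-K1 clones, dye-loaded with Fluo-4 AM plus probenecid in HEPES-buffered HBSS with 0.1% BSA.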
row,Structure (SMILES),"OX2R agonist activity (3 μM, %) [%]"
1,"Cc1cc(F)c(C2CC(N3C[C@@H](NS(C)(=O)=O)C(F)(F)C3)=NO2)c(-c2c(F)cccc2F)c1 (stereo partly drawn) [Example 146, N-{(3R)-4,4-difluoro-1-[5-(2′,3,6′-trifluoro-5-methyl[1,1′-biphenyl]-2-yl)-4,5-dihydro-1,2-oxazol-3-yl]pyrrolidin-3-yl}methanesulfonamide]",102
2,"CS(=O)(=O)N[C@@H]1CN(C2=NOC(CF)(c3ncc(F)cc3-c3c(F)cc(F)cc3F)C2)CC1(F)F (stereo partly drawn) [Example 147, N-[(3R)-4,4-difluoro-1-{5-(fluoromethyl)-5-[5-fluoro-3-(2,4,6-trifluorophenyl)pyridin-2-yl]-4,5-dihydro-1,2-oxazol-3-yl}pyrrolidin-3-yl]methanesulfonamide]",98
3,"O=S(=O)(CF)N[C@@H]1CN(C2=NOC(c3ncc(Cl)cc3-c3c(F)cccc3F)C2)CC1(F)F (stereo partly drawn) [Example 148, N-[(3R)-1-{5-[5-chloro-3-(2,6-difluorophenyl)pyridin-2-yl]-4,5-dihydro-1,2-oxazol-3-yl}-4,4-difluoropyrrolidin-3-yl]-1-fluoromethanesulfonamide]",98
4,"CS(=O)(=O)N[C@@H]1CN(C2=NOC(CF)(c3ncccc3-c3c(F)cccc3F)C2)CC1(F)F (stereo partly drawn) [Example 150, N-[(3R)-1-{5-[3-(2,6-difluorophenyl)pyridin-2-yl]-5-(fluoromethyl)-4,5-dihydro-1,2-oxazol-3-yl}-4,4-difluoropyrrolidin-3-yl]methanesulfonamide]",95
5,"CCS(=O)(=O)N[C@@H]1CN(C2=NOC(CF)(c3ncccc3-c3c(F)cccc3F)C2)CC1(F)F (stereo partly drawn) [Example 151, N-[(3R)-1-{5-[3-(2,6-difluorophenyl)pyridin-2-yl]-5-(fluoromethyl)-4,5-dihydro-1,2-oxazol-3-yl}-4,4-difluoropyrrolidin-3-yl]ethanesulfonamide]",107
6,"CC1(c2ncc(Cl)cc2-c2ncc(F)cc2F)CC(N2C[C@@H](NS(C)(=O)=O)C(F)(F)C2)=NO1 (stereo partly drawn) [Example 152, N-{(3R)-1-[5-(5′-chloro-3,5-difluoro[2,3′-bipyridin]-2′-yl)-5-methyl-4,5-dihydro-1,2-oxazol-3-yl]-4,4-difluoropyrrolidin-3-yl}methanesulfonamide]",107
7,"CS(=O)(=O)N[C@@H]1CN(C2=NOC(CF)(c3ncc(C(F)F)cc3-c3c(F)cccc3F)C2)CC1(F)F (stereo partly drawn) [Example 153, N-[(3R)-1-{5-[5-(difluoromethyl)-3-(2,6-difluorophenyl)pyridin-2-yl]-5-(fluoromethyl)-4,5-dihydro-1,2-oxazol-3-yl}-4,4-difluoropyrrolidin-3-yl]methanesulfonamide]",96
8,"Cc1cc(F)c(C2CC(N3C[C@@H](NS(C)(=O)=O)C(F)(F)C3)=NO2)c(-c2ncc(F)cc2F)c1 (stereo partly drawn) [Example 154, N-[(3R)-1-{5-[2-(3,5-difluoropyridin-2-yl)-6-fluoro-4-methylphenyl]-4,5-dihydro-1,2-oxazol-3-yl}-4,4-difluoropyrrolidin-3-yl]methanesulfonamide]",102
9,"CS(=O)(=O)N[C@@H]1CN(C2=NOC(c3c(F)cc(F)cc3-c3c(F)cccc3F)C2)CC1(F)F (stereo partly drawn) [Example 156, N-{(3R)-4,4-difluoro-1-[5-(2′,3,5,6′-tetrafluoro[1,1′-biphenyl]-2-yl)-4,5-dihydro-1,2-oxazol-3-yl]pyrrolidin-3-yl}methanesulfonamide]",94
10,"CS(=O)(=O)N[C@@H]1CN(C2=NOC(CF)(c3ncccc3-c3c(F)cc(F)cc3F)C2)CC1(F)F (stereo partly drawn) [Example 157, N-[(3R)-4,4-difluoro-1-{5-(fluoromethyl)-5-[3-(2,4,6-trifluorophenyl)pyridin-2-yl]-4,5-dihydro-1,2-oxazol-3-yl}pyrrolidin-3-yl]methanesulfonamide]",92
11,"CC1(c2ncc(F)cc2-c2c(F)cccc2F)CC(N2C[C@@H](NS(C)(=O)=O)C(F)(F)C2)=NO1 (stereo partly drawn) [Example 158, N-[(3R)-1-{5-[3-(2,6-difluorophenyl)-5-fluoropyridin-2-yl]-5-methyl-4,5-dihydro-1,2-oxazol-3-yl}-4,4-difluoropyrrolidin-3-yl]methanesulfonamide]",100
12,"CS(=O)(=O)N[C@@H]1CN(C2=NOC(c3c(F)ccc(F)c3-c3c(F)cccc3F)C2)C[C@@H]1F (stereo partly drawn) [Example 159, N-{(3R,4S)-4-fluoro-1-[5-(2′,3,6,6′-tetrafluoro[1,1′-biphenyl]-2-yl)-4,5-dihydro-1,2-oxazol-3-yl]pyrrolidin-3-yl}methanesulfonamide]",99
13,"CS(=O)(=O)N[C@@H]1CN(C2=NOC(c3c(F)cccc3-c3c(F)cccc3F)C2)CC1(F)F (stereo partly drawn) [Example 160, N-{(3R)-4,4-difluoro-1-[5-(2′,3,6′-trifluoro[1,1′-biphenyl]-2-yl)-4,5-dihydro-1,2-oxazol-3-yl]pyrrolidin-3-yl}methanesulfonamide]",104
14,"Cc1ccc(C2(C)CC(N3C[C@@H](NS(C)(=O)=O)C(F)(F)C3)=NO2)c(-c2ncc(F)cc2F)c1 (stereo partly drawn) [Example 161, N-[(3R)-1-{5-[2-(3,5-difluoropyridin-2-yl)-4-methylphenyl]-5-methyl-4,5-dihydro-1,2-oxazol-3-yl}-4,4-difluoropyrrolidin-3-yl]methanesulfonamide]",103
15,"O=S(=O)(CF)N[C@@H]1CN(C2=NO[C@](CF)(c3ncc(F)cc3-c3c(F)cccc3F)C2)C[C@@H]1F [Example 162, N-[(3R,4S)-1-{(5S)-5-[3-(2,6-difluorophenyl)-5-fluoropyridin-2-yl]-5-(fluoromethyl)-4,5-dihydro-1,2-oxazol-3-yl}-4-fluoropyrrolidin-3-yl]-1-fluoromethanesulfonamide]",103
16,"O=S(=O)(CF)N[C@@H]1CN(C2=NOC(CF)(c3ncc(F)cc3-c3c(F)cc(F)cc3F)C2)C[C@@H]1F (stereo partly drawn) [Example 163, 1-fluoro-N-[(3R,4S)-4-fluoro-1-{5-(fluoromethyl)-5-[5-fluoro-3-(2,4,6-trifluorophenyl)pyridin-2-yl]-4,5-dihydro-1,2-oxazol-3-yl}pyrrolidin-3-yl]methanesulfonamide]",98
17,"CS(=O)(=O)N[C@@H]1CN(C2=NOC(c3c(F)cc(F)c(F)c3-c3c(F)cccc3F)C2)C[C@@H]1F (stereo partly drawn) [Example 166, N-{(3R,4S)-4-fluoro-1-[5-(2′,3,5,6,6′-pentafluoro[1,1′-biphenyl]-2-yl)-4,5-dihydro-1,2-oxazol-3-yl]pyrrolidin-3-yl}methanesulfonamide]",102
18,"O=S(=O)(CF)N[C@@H]1CN(C2=NOC(c3c(F)cc(F)cc3-c3c(F)cccc3F)C2)CC1(F)F (stereo partly drawn) [Example 169, N-{(3R)-4,4-difluoro-1-[5-(2′,3,5,6′-tetrafluoro[1,1′-biphenyl]-2-yl)-4,5-dihydro-1,2-oxazol-3-yl]pyrrolidin-3-yl}-1-fluoromethanesulfonamide]",98
19,"O=S(=O)(CF)N[C@@H]1CN(C2=NOC(c3c(F)cccc3-c3c(F)cccc3F)C2)CC1(F)F (stereo partly drawn) [Example 170, N-{(3R)-4,4-difluoro-1-[5-(2′,3,6′-trifluoro[1,1′-biphenyl]-2-yl)-4,5-dihydro-1,2-oxazol-3-yl]pyrrolidin-3-yl}-1-fluoromethanesulfonamide]",102
20,"CS(=O)(=O)N[C@@H]1CN(C2=NOC(c3c(F)cc(Cl)cc3-c3ncc(F)cc3F)C2)CC1(F)F (stereo partly drawn) [Example 171, N-[(3R)-1-{5-[4-chloro-2-(3,5-difluoropyridin-2-yl)-6-fluorophenyl]-4,5-dihydro-1,2-oxazol-3-yl}-4,4-difluoropyrrolidin-3-yl]methanesulfonamide]",109
21,"CS(=O)(=O)N[C@@H]1CN(C2=NOC(c3c(F)cc(F)c(F)c3-c3c(F)cccc3F)C2)CC1(F)F (stereo partly drawn) [Example 172, N-{(3R)-4,4-difluoro-1-[5-(2′,3,5,6,6′-pentafluoro[1,1′-biphenyl]-2-yl)-4,5-dihydro-1,2-oxazol-3-yl]pyrrolidin-3-yl}methanesulfonamide]",99
22,"O=S(=O)(CF)N[C@@H]1CN(C2=NOC(c3c(F)ccc(F)c3-c3c(F)cccc3F)C2)CC1(F)F (stereo partly drawn) [Example 173, N-{(3R)-4,4-difluoro-1-[5-(2′,3,6,6′-tetrafluoro[1,1′-biphenyl]-2-yl)-4,5-dihydro-1,2-oxazol-3-yl]pyrrolidin-3-yl}-1-fluoromethanesulfonamide]",100
23,"O=S(=O)(CF)N[C@@H]1CN(C2=NOC(c3c(F)cc(F)c(F)c3-c3c(F)cccc3F)C2)CC1(F)F (stereo partly drawn) [Example 174, N-{(3R)-4,4-difluoro-1-[5-(2′,3,5,6,6′-pentafluoro[1,1′-biphenyl]-2-yl)-4,5-dihydro-1,2-oxazol-3-yl]pyrrolidin-3-yl}-1-fluoromethanesulfonamide]",107
24,"COc1cccc(F)c1-c1cc(C)cc(F)c1C1CC(N2C[C@@H](NS(C)(=O)=O)C(F)(F)C2)=NO1 (stereo partly drawn) [Example 175, N-{(3R)-1-[5-(2′,3-difluoro-6′-methoxy-5-methyl[1,1′-biphenyl]-2-yl)-4,5-dihydro-1,2-oxazol-3-yl]-4,4-difluoropyrrolidin-3-yl}methanesulfonamide]",112
